Data on two substances can be found in US20110117168A1, “METHODS AND COMPOSITIONS FOR SOFT TISSUE REPAIR” (AFFINERGY, INC., priority 2009, published 2011).

Ends that are not written are not given here. spacer = not defined here

For assay [1], the system named is human MSCs. Briefly: Capture of MSCs from a mixed cell population with peptide on CELLECTION magnetic beads. The assay is classed as cell-based. The following applies: starting mixture 38% IM9, 56% U937, 4% MSC. The text has this:
In this experiment, biotinylated cell binding peptide, SEQ ID NO: 16, was attached to CELLECTION magnetic beads. The CELLECTION beads have streptavidin coupled to a magnetic particle through a DNA linker. Three different cell types, human MSCs, IM-9, and U937 cells were differentially labeled with […] dye and mixed in a ratio such that the MSCs represented ˜4% of the starting cell mixture (the percentage of each cell type in the starting mixture was 38% IM9, 56% U937, and 4% MSC). The cell binding peptide, SEQ ID NO: 16, was biotinylated as described herein at Example 2, as was a general cell binding peptide for use as a control peptide in the experiment. Magnetic particles with no peptide attached, as well as magnetic beads having attached either the cell binding peptide, SEQ ID NO: 16, or the control peptide were tested for their ability to capture human MSCs. The starting cell mixture was incubated with magnetic beads having either attached peptide or no peptide, the beads were washed, and the captured cells were released from the beads by DNase treatment. The cells were measured by flow cytometry histograms shown in 18A-18C. The magnetic beads without peptide captured little or no cells (FIG. 18B). The magnetic beads with attached cell binding peptide SEQ ID NO: 16 captured a cell population that was 96% MSCs (FIG. 18C).

Assay [2] has as its system HUVECs. Briefly: Retention of HUVECs under shear stress on collagen-coated cover-slips. The assay is classed as cell-based, human. The protocol: The ability of the collagen modified with endothelial cell binding peptide SEQ ID NO: 4 to retain HUVECs under shear stress was analyzed as follows. Glass cover-slips were coated with peptide conjugated collagen or unmodified collagen and seeded with HUVECs. Coverslips were secured in a polycarbonate slide with six 1 cm diameter wells enabling simultaneous testing of materials. A closed loop peristaltic pump was used to expose the samples to flow conditions for 30 minutes at laminar flow rates up to 12 dynes/cm^2 in PBS containing 2% FBS. The number of cells retained on the cover slip was determined using […]-GLO (INVITROGEN) and a luminometer.

Assay [3] concerns ECFCs. Briefly: Capture of ECFCs in flow on collagen-coated coverslips (parallel plate flow chamber). The class given is cell-based, human. To be noted: 2×10^6 ECFC circulated for 2 h at 37° C. On the procedure:
The ability of the collagen modified with endothelial cell binding peptide SEQ ID NO: 4 to capture ECFCs in flow was analyzed as follows. Glass coverslips were coated with unmodified collagen or cell binding peptide modified-collagen and mounted in a polycarbonate parallel plate flow chamber. PBS/10% FBS was circulated through a closed 150 ml system to block the coverslips. Approximately 2×10^6 ECFC were injected into the system and were circulated for 2 h at 37° C. Coverslips were washed in PBS to remove loosely adhering cells, the remaining cells on the coverslips were lysed in CELLTITERGLO (INVITROGEN, CA), and the cells enumerated by luminescence against a standard curve.

Assay [4] relates to HUVECs. Briefly: HUVEC colonization and proliferation on peptide-modified collagen. The assay is classed as cell-based, human. To be noted: 7,000 HUVECs, 48 hours at 37° C. The protocol: In 96-well plates 7,000 HUVECs were plated on peptide-modified soluble collagen or unmodified collagen for 48 hours at 37° C. Plates were removed and washed and the remaining attached cells were detected using […]-GLO on a luminometer.

Assay [5] has as its system HUVECs. Briefly: Endothelial cell phenotype and anti-thrombogenic protein expression on peptide-modified collagen. The class given is cell-based, human. To be noted: HUVECs cultured 24 hours; t-PA and 6-keto Prostaglandin F1a ELISA, flow cytometry. On the procedure:
Once immobilized on a vascular graft, endothelial cells must retain their characteristic properties of promoting endothelialization. Therefore, the phenotype, viability, and anti-thrombogenic protein expression profiles were evaluated for endothelial cells in the presence of collagen modified with the endothelial cell binding peptide SEQ ID NO: 4 (generated according to Example 7 using BS^3 reagent). […] Specifically, HUVECs were plated on SEQ ID NO: 4 peptide-modified collagen, collagen with 10 μM free SEQ ID NO: 4 peptide or collagen alone for 24 hours. Flow cytometry was performed using a BD […], and ELISAs were performed according to manufacturers instructions. (FIGS. 22A & 22B). Tissue-type Plasminogen Activator (t-PA) and 6-keto Prostaglandin F1a protein expression levels secreted in this assay are aligned with other reports on cultured HUVECS (Kimura and Yokoi-Hayashi, Biochim Biophys Acta, 1996, 1310:1-4; Merhi-Soussi et al., J Leukoc Biol, 2000, 68:881-9).
In general terms: ELISA stands for enzyme-linked immunosorbent assay.

For assay [6], the system named is human dermal fibroblasts. The assay can be described thus: Fibroblast binding to peptide-modified collagen coated plates ([…]-GLO). The class given is cell-based. The protocol: The experiment was performed according to the following procedure. Cell-binding peptide (SEQ ID NO: 4) was covalently attached to soluble collagen as described herein at Example 7. 96-well plates were coated with various amounts of unmodified or the peptide-modified collagen (177 μmol peptide/g collagen) over night at 4° C. Unbound collagen was removed and the plates were blocked for 1 h. After washing, 5,000 human dermal fibroblasts were added per well in serum-free medium for 30 min at 37° C. The plates were washed, and bound cells were detected with […]-GLO (PROMEGA) using a luminometer. At 0.0025 μg collagen, fibroblast binding was increased 11-fold for the peptide-modified collagen compared to unmodified collagen (see FIG. 28).

The test system of assay [7] is HUVECs. Briefly: HUVEC capture and retention on peptide-modified collagen coated 96-well plates ([…]-GLO). The class given is cell-based, human. On the procedure:
After washing, 10,000 HUVECs were added per well in serum free medium for 30 min at 37° C. The plates were washed 3 times with PBS containing 2% FBS, and captured cells were detected with […]-GLO (INVITROGEN) using a luminometer and a standard curve. […] For FIG. 21B, the collagen was extracted in gel loading buffer, separated by PAGE, and total protein was stained with SIMPLYBLUE (INVITROGEN). […] Plates with captured HUVECs were prepared as described in FIG. 20A. […]

As for “SSFRFGPLGTWNYPSTDNAE (also: biotin (position not given here)) [SEQ ID NO: 16, tested biotinylated]”, in assay [1], the “MSCs in captured cell population” value is 96%.
Take “peptide-modified collagen: soluble bovine type I collagen with SEQ ID NO: 4 covalently attached via BS^3 crosslinking reagent (SSFWDVCQGDGTCYGGGSR-{spacer-Lys}; cysteine pairing not given here; reading uncertain; also: conjugated to soluble bovine type I collagen via BS3 (site not given here))”: the “cells captured versus unmodified collagen” value in assay [2] (HUVECs, 30 minutes, laminar flow up to 12 dynes/cm^2) is given as “about 3 fold”. In addition, the “effect of shear stress on cell capture” value in assay [2] (laminar flow up to 12 dynes/cm^2, 30 minutes) is on record as “did not significantly affect cell capture”. Also, in assay [3], the “cells captured in flow versus unmodified collagen” value was “about 20 fold”. Besides, the “HUVEC colonization and proliferation versus unmodified collagen” value in assay [4] was “colonize and proliferate equally”. In assay [5], the “endothelial cell phenotype and anti-thrombogenic protein secretion” value is “maintained their endothelial cell phenotype and their ability to secrete anti-thrombogenic proteins”. In addition, the “fibroblast binding increase compared to unmodified collagen” value in assay [6] (0.0025 μg collagen, 5,000 human dermal fibroblasts, 30 min at 37° C.) was found to be 11 fold. Also, the “fibroblast binding at higher concentrations of collagen” value in assay [6] (data not shown) is on record as “Increased cell binding”. In assay [7] (1 hour with agitation in PBS containing 2% FBS), the “HUVECs retained versus unmodified collagen after agitation” value was 7 fold. In addition, the “increase in cell retention over unmodified collagen” value in assay [7] (10,000 HUVECs per well, serum free medium, 30 min at 37° C.) is given as 3 fold.
